Data as given in patent US20020044973A1, “MICROPARTICLES AND THEIR USE IN CANCER TREATMENT” (priority 1997, published 2002).
In brackets after ≈: the same amount, converted by molar mass.

What was measured:
C170HM2 = assay: Example 5: liver tumour weight in tumour-bearing mice, loaded HSAMs vs free doxorubicin; assay type: in vivo; conditions: 0.24 mg/kg loaded HSAMs or 0.25 mg/kg free doxorubicin; dosing at day 27, termination at day 41; 12 mice per group
Procedure: 0.24 mg/kg doxorubicin-loaded HSAMs (drug loading approx. 1% w/w) were administered to a group of tumour-bearing mice (C170HM2). A further group received HSAMs, at a protein concentration of 100 mg/ml, as a control. A third group received 0.25 mg/kg free doxorubicin. There were 12 mice per group. Dosing was at day 27, termination at day 41.
For the control, the mean liver tumour weight was c. 1.3 g. Following administration of free doxorubicin, the mean weight was c. 0.3 g.

MCF7/Dox cell line = assay: Cytotoxicity in doxorubicin-resistant P-glycoprotein expressing daughter cell line (cell counting, Coulter Counter); assay type: cell-based; conditions: Homo sapiens, 24 hours incubation, further 72 hours before counting, microspheres expressed as μg doxorubicin per ml
Procedure: More specifically, the experiment compared the cytotoxicity of a novel preparation of doxorubicin covalently-linked to a human serum albumin microsphere carrier between 2 and 3 μm in diameter on a doxorubicin-sensitive human breast cancer cell line and its doxorubicin-resistant P-glycoprotein expressing daughter cell line. […] The human MCF7 cell line and its doxorubicin-resistant daughter cell line, MCF7/Dox were used.
The medium was then changed, cells were incubated for a further 72 hours before harvesting and counting with a Coulter Counter.

COc1cccc2c1C(=O)c1c(O)c3c(c(O)c1C2=O)C[C@@](O)(C(=O)CO)C[C@@H]3O[C@H]1C[C@H](N)[C@H](O)[C@H](C)O1 [doxorubicin]
mean liver tumour weight (C170HM2): ~0.3 g | IC50 (MCF7/Dox cell line): 0.387 µg/mL (≈ 0.712 µM)
